Laboratory results as given in US7723473B2, “Peptide antagonists of TGF-beta family members and therapeutic uses thereof” (St. Louis University, priority 1997, dated 2010).
“Also recorded” adds a separate entry of the source.

How the values were obtained:
[1] = system: type I, type II, and type III TGF-β receptors; assay: 125I-TGF-β1-affinity labeling of other cell-surface TGF-β receptor types in mink lung epithelial cells; type: binding; settings: peptide at 2.3 μM
Experimental: (§1) ^125I-TGF-β1-affinity labeling of cell-surface TGF-β receptors in mink lung epithelial cells. Mink lung epithelial cells grown on 60-mm Petri dishes were incubated with 0.1 nM […] the presence of various concentrations of peptide β1^25 (41-65) or peptide β3^25 (41-65) in binding buffer. After 2.5 hr at 0° C., ^125I-TGF-β1-affinity labeling was carried out in the presence of DSS as described. The ^125I-TGF-β1-affinity-labeled TGF-β receptors were analyzed by 5% SDS-polyacrylamide gel electrophoresis under reducing conditions and autoradiography.

[2] = Observation of deleterious effects in treated animals; type: in vivo, pig, rabbit; settings: topical, any animal
Experimental: Burn wound model. Four pigs weighing 20-25 kg were anesthetized by intramuscular injection of ketamine (5 mg/kg), strenil® (cazaporonum) (20 mg/kg) and atropine (5 mg/kg). Six uniform burn wounds (110° C., 30 sec) were then made symmetrically on the back of each pig using a modified soldering iron (Ref. 15) with a flat contact area of 20 cm^2. […] After wounding, a thin layer of Intrasite®) gel containing either peptide β1^25 (41-65), buffer or nothing else was applied to the wounds. All wounds were dressed with paraffin gauze. The dressing was changed every two days for the first 10 days and twice a week for the next 30 days. Gel comprising peptide β1^25 (41-65) and control gel were applied and wound measurements were made at each dressing change.
Excision wound model. Four pigs received intramuscular injection of ketamine, strenil® and atropine as described above. Six excision injuries were generated by removing full-thickness sections of skin (3×3 cm) from standardized sites on the back of each animal using a scapel. Three rabbits, were anesthetized by intramuscular injection of ketamine (5 mg/kg). Three excision injuries were produced in each by removing full-thickness sections of skin (0.5×1 cm) from each ear. […]

[3] = system: type V TGF-β receptor (TβR-V); assay: 125I-TGF-β1-affinity labeling of cell-surface type V TGF-β receptor in mink lung epithelial cells; type: binding; settings: peptide at 2.3 μM
Experimental: as §1

[4] = system: mink lung epithelial cells; assay: Mink lung epithelial cell growth measured by DNA synthesis without added TGF-β1 (agonist activity); type: cell-based
Experimental: [Methyl-^3H]thymidine Incorporation—Mink lung epithelial cells grown on 24-well clustered dishes were incubated with various concentrations of TGF-β1 in the presence and absence of peptide β1^25 (41-65) or with various concentrations of peptide β1^25 (41-65)-CA, and peptide β1^25 (41-65)-BSA in DMEM containing 0.1% fetal calf serum. After 16 hr at 37° C., the cells were pulsed with 1 μCi/ml of [methyl-^3H]thymidine for 4 hr. The cells were then washed twice with 1 ml of 10% trichloroacetic acid and once with 0.5 ml of ethanol:ether (2:1, v/v). The cells were then dissolved in 0.4 ml of 0.2 N NaOH and counted with a liquid scintillation counter.

excision wounds = assay: Pig excision wound model; type: in vivo; settings: for deposition / immunostaining of fibronectin in excision wounds / deposition / immunostaining of type I collagen in excision wounds: post-excision day 30 (legend: day 28), immunohistochemistry
Experimental: (§2) Preparation of IntraSite® gel containing TGF-β peptantagonist (peptide TGF-beta antagonist). 1 ml of sterile 6 mM peptide β1^25 (41-65) in phosphate buffered saline or 1 ml of sterile phosphate buffered saline was vigorously mixed with 3 ml of IntraSite® gel using two 10 ml syringes connected with a three-way connector. […] However, 1.5 mM of peptide β1^25 (41-65) was used throughout the experiments described below.
(§3) Excision wound model. Four pigs received intramuscular injection of ketamine, strenil® and atropine as described above. Six excision injuries were generated by removing full-thickness sections of skin (3×3 cm) from standardized sites on the back of each animal using a scapel. Three rabbits, were anesthetized by intramuscular injection of ketamine (5 mg/kg). Three excision injuries were produced in each by removing full-thickness sections of skin (0.5×1 cm) from each ear. After wounds, a thin layer of IntraSite® gel containing peptide β1^25 (41-65) was applied to alternating wounds on each animal and IntraSite® gel+buffer was applied to the other half. The excision wounds were then dressed with a paraffin gauze. For pig experiments, the dressing was changed every two days for the first 10 days and twice a week for the next 30 days. For rabbit experiments, the dressing was changed for the first 3 days. Gel containing peptide β1^25 (41-65) or control gel was applied at each dressing change.
Assessment of wound healing. Wound healing was assessed by evaluating the rates of wound re-epithelization and contraction. The open wound area and the area enclosed by the normal hair bearing skin were measured using the macrophotography technique (Ref. 14). The healing rate was monitored every two days for the first 10 days and twice a week for 30 more days. Wound reepithelialization as a percent of the original wound size was calculated using the following formula:
[formula] where C=rate of wound contraction in percent; Al=wound area as measured immediately following the burn or excision injury; An=area enclosed by normal hair bearing skin.
Immunohistochemistry. The wounds were frozen immediately after being removed from animals on post-excision day 30. Serial sections were placed on polylysine-coated slides. The sections containing wound areas were stained with hematoxylin/eosin and monoclonal antibodies to type I collagen and fibronectin and biotin-conjugated rabbit anti-mouse IgG/streptavidin-conjugated horseradish peroxidase (Ref. 16). The stained sections were examined and photographed by light microscopy.

ear excision wounds = assay: Rabbit ear excision wound model; type: in vivo; settings: for scar formation: post-excision day 10
Experimental: as §2, §3
Measurement of scar. The volumes of scar tissue were estimated by multiplying their thickness by the size of the scar on post-burn day 41 in pigs and post-excision day 10 in rabbits.

ANFCLGPCPYIWSLDTQYSKVLALY [peptide β1^25 (41-65)]
inhibition of 125I-TGF-β1-affinity labeling of other TGF-β receptor types [1]: 30-40% | deleterious effects [2]: no apparent deleterious effects | inhibition of 125I-TGF-β1-affinity labeling of the type V TGF-β receptor [3]: almost completely abolished | effect on DNA synthesis in the absence of TGF-β1 ([4]; 0.1 μM to 36 μM peptide): did not have an effect | reversal of growth inhibition induced by 0.2 μM β1^25 (41-65)-CA ([4]; 10 μM peptide, data not shown): abolished | contraction of the wound (excision wounds; 1.5 mM in gel, topical): attenuated contraction | vertical (length of the healed wound) contraction versus vehicle only (excision wounds; 1.5 mM in gel, topical): less vertical | vertical (length of the healed wound) contraction versus vehicle only (excision wounds; 1.5 mM in gel, topical, listed as TGF-β peptantagonist): contracted vertically less; also recorded: less vertical | deposition / immunostaining of fibronectin in excision wounds (excision wounds): diminished the deposition | deposition / immunostaining of type I collagen in excision wounds (excision wounds): diminished the deposition | deposition / immunostaining of fibronectin in excision wounds (excision wounds; listed as TGF-β peptantagonist): less intensity of staining | deposition / immunostaining of type I collagen in excision wounds (excision wounds; listed as TGF-β peptantagonist): less intensity of staining | horizontal (width of the healed wound) contraction (excision wounds; post-excision day 41): almost contracted completely | scar formation (ear excision wounds): attenuated scar formation | volume of scar tissue (ear excision wounds; post-excision day 10, n=6, estimated): 0.005±0.01 cm^3 | scar formation (ear excision wounds; listed as TGF-β-peptantagonist): reduced scarring
